Test results published in US10662204B2 (PFIZER INC., priority 2018, dated 2020).

Tests used:
[1] = biological target: T1, GDP-loaded KRAS (1-169) G12C, C51S, C80L, C118S (Homo sapiens, UniProt P01116, C118S/C51S/C80L/G12C); experiment: Mass Spectrometry Reactivity Assay (MSRA): covalent adduct of compound and KRAS G12C, Percent Modification; assay type: binding; settings: for MSRA (% modification) 10 μM 0.50 hr / MSRA (% modification) 10 μM 0.25 hr: 10 μM compound
T1 construct: GDP-loaded KRAS (1-169) G12C, C51S, C80L, C118S
Outline: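 Covalent labelling is measured by intact mass: deconvoluted modified and unmodified peak intensities yield percent modification. Compound, usually 5 μM or 10 μM final, reacts at room temperature with 5 μM GDP-bound KRAS G12C (1-169, C51S/C80L/C118S) in Hepes pH 7.5/NaCl/glycerol, sampled at 1, 15, 30, 60 min.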

KRAS G12C = KRAS G12C (Homo sapiens, UniProt P01116, G12C); experiment: Cell Activity Assay: accumulation of GDP-bound KRAS G12C in MIAPaCa-2 cells (Raf-1 RBD capture, MSD readout); assay type: cell-based; parameters: endogenous in cells; host or cells: MIAPaCa-2; settings: 6 hours, assay limit is 30.00
Outline: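 IC50 came from a 4-parameter fit of Ras signal normalized between DMSO and full-inhibition controls. Readout: lysate GTP-Ras bound to immobilized Raf-1 RBD, quantified with pan-Ras antibody and MSD electrochemiluminescence. Lysates derived from MIAPaCa-2 cells treated 6 h with serially diluted compound, 0.3% DMSO.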

Row | SMILES | MSRA (% modification) 5.0 μM 0.25 hr ([1]; 5.0 μM compound) | IC50 (KRAS G12C) | MSRA (% modification) 10 μM 0.50 hr [1] | MSRA (% modification) 5.0 μM 0.017 hr ([1]; 5.0 μM compound, 0.017 hr) | MSRA (% modification) 10 μM 0.25 hr [1]
1 | C=CC(=O)N1CCN(c2nc(Oc3cccnc3C(C)C)nc3c(Oc4c(Cl)c(F)cc5[nH]ncc45)nccc23)CC1 [Example 05I, 1-[4-(8-[(5-chloro-6-fluoro-1H-indazol-4-yl)oxy]-2-{[2-(propan-2-yl)pyridin-3-yl]oxy}pyrido [3,4-d]pyrimidin-4-yl)piperazin-1-yl]prop-2-en-1-one] | 70% | 0.074 µM |  |  | 
2 | C=CC(=O)N1CCN(c2nc(O[C@H]3CCOC3)nc3c(Oc4c(Cl)c(F)cc5[nH]ncc45)nccc23)CC1 [Example 01J, 1-(4-{8-[(5-chloro-6-fluoro-1H-indazol-4-yl)oxy]-2-[(3S)-tetrahydrofuran-3-yloxy]pyrido[3,4-d]pyrimidin-4-yl}piperazin-1-yl)prop-2-en-1-one] | 55% | 0.339 µM |  |  | 
3 | C=CC(=O)N1CCN(c2ncnc3c(Oc4c(Cl)c(F)cc5[nH]ncc45)nccc23)CC1 [Example 02C, 1-(4-{8-[(5-chloro-6-fluoro-1H-indazol-4-yl)oxy]pyrido[3,4-d]pyrimidin-4-yl}piperazin-1-yl)prop-2-en-1-one] | 12% | 1.01 µM | 60% |  | 
4 | C=CC(=O)N1CCN(c2ncnc3c(Oc4c(Cl)c(F)cc5[nH]ncc45)cccc23)CC1 [Example 18C, 1-(4-{8-[(5-chloro-6-fluoro-1H-indazol-4-yl)oxy]quinazolin-4-yl}piperazin-1-yl)prop-2-en-1-one] | 36% | 1.1 µM | 50% |  | 
5 | [2H]C([2H])([2H])N1C[C@@H](OC)[C@H](Oc2nc(N3CCN(C(=O)C=C)CC3)c3ccnc(Oc4c(Cl)c(F)cc5[nH]ncc45)c3n2)C1 [Example 56I, 1-[4-(8-[(5-chloro-6-fluoro-1H-indazol-4-yl)oxy]-2-{[(3R,4R)-4-methoxy-1-(^2H3)methyl-pyrrolidin-3-yl]oxy}pyrido [3,4-d]pyrimidin-4-yl)piperazin-1-yl]prop-2-en-1-one] |  | 0.04 µM |  | 81% | 
6 | C=CC(=O)N1CCN(c2nc(N3CC(N(C)C)C3)nc3c(Oc4c(C)ccc5[nH]ncc45)cccc23)CC1 [Example 02E, 1-(4-{2-[3-(dimethylamino)azetidin-1-yl]-8-[(5-methyl-1H-indazol-4-yl)oxy]quinazolin-4-yl}piperazin-1-yl)prop-2-en-1-one] |  | 6.46 µM | 32% |  | 
7 | C=CC(=O)N1CCN(c2ncnc3c(Oc4cc(O)cc5ccccc45)nc(C(F)(F)F)cc23)CC1 [Example 01, 1-(4-{8-[(3-hydroxynaphthalen-1-yl)oxy]-6-(trifluoromethyl)pyrido[3,4-d]pyrimidin-4-yl}piperazin-1-yl)prop-2-en-1-one] |  | > 30 µM | 27% |  | 
8 | C=CC(=O)N1CCN(c2nc(OC[C@H]3CCOC3)nc3c(Oc4c(Cl)c(F)cc5[nH]ncc45)nccc23)CC1 [Example 04H, 1-(4-{8-[(5-chloro-6-fluoro-1H-indazol-4-yl)oxy]-2-[(3S)-tetrahydrofuran-3-ylmethoxy]pyrido[3,4-d]pyrimidin-4-yl}piperazin-1-yl)prop-2-en-1-one] | 65% | 0.465 µM |  |  | 73%
9 | C=CC(=O)N1CCN(c2nc(Oc3cccnc3C)nc3c(Oc4c(Cl)c(F)cc5[nH]ncc45)nccc23)CC1 [Example 14I, 1-(4-{8-[(5-chloro-6-fluoro-1H-indazol-4-yl)oxy]-2-[(2-methyl-pyridin-3-yl)oxy]pyrido [3,4-d]pyrimidin-4-yl}piperazin-1-yl)prop-2-en-1-one] | 14% | 0.366 µM |  |  | 
10 | C=CC(=O)N1CCN(c2ncnc3c(Oc4c(C)ccc5[nH]ncc45)nc(C)cc23)CC1 [Example 02A, 1-(4-{6-methyl-8-[(5-methyl-1H-indazol-4-yl)oxy]pyrido[3,4-d]pyrimidin-4-yl}piperazin-1-yl)prop-2-en-1-one] |  | 5.25 µM | 15% |  | 
11 | C=CC(=O)N1CCN(c2ncnc3c(Oc4c(C)ccc5[nH]ncc45)nc(Cl)cc23)CC1 [Example 09A, 1-(4-{6-chloro-8-[(5-methyl-1H-indazol-4-yl)oxy]pyrido[3,4-d]pyrimidin-4-yl}piperazin-1-yl)prop-2-en-1-one] |  | 1.87 µM | 38% |  | 
12 | C=CC(=O)N1CCN(c2ncnc3c(Oc4c(Cl)c(C)cc5[nH]ncc45)nc(Cl)cc23)CC1 [Example 15A, 1-(4-{6-chloro-8-[(5-chloro-6-methyl-1H-indazol-4-yl)oxy]pyrido[3,4-d]pyrimidin-4-yl}piperazin-1-yl)prop-2-en-1-one] |  | 0.468 µM | 67% |  | 
13 | C=CC(=O)N1CCN(c2nc(NC(C)c3nncn3C)nc3c(Oc4c(C)ccc5[nH]ncc45)cccc23)CC1 (centres unmarked) [Example 03F, 1-[4-(8-[(5-methyl-1H-indazol-4-yl)oxy]-2-{[1-(4-methyl-4H-1,2,4-triazol-3-yl)ethyl]amino}quinazolin-4-yl)piperazin-1-yl]prop-2-en-1-one] |  | > 30 µM | 12% |  | 
14 | C=CC(=O)N1CCN(c2ncnc3c(Oc4c(C)c(Cl)cc5[nH]ncc45)nc(C#N)cc23)CC1 [Example 28A, 4-(4-acryloylpiperazin-1-yl)-8-[(6-chloro-5-methyl-1H-indazol-4-yl)oxy]pyrido[3,4-d]pyrimidine-6-carbonitrile] |  | 1.02 µM | 61% |  | 
15 | C=CC(=O)N1CCN(c2nc(OCC3CCOC3)nc3c(Oc4c(Cl)c(F)cc5[nH]ncc45)nc(Cl)cc23)CC1 (centres unmarked) [Example 12G, 1-(4-{6-chloro-8-[(5-chloro-6-fluoro-1H-indazol-4-yl)oxy]-2-(tetrahydrofuran-3-ylmethoxy)pyrido[3,4-d]pyrimidin-4-yl}piperazin-1-yl)prop-2-en-1-one] |  | 0.071 µM |  |  | 75%
16 | C=CC(=O)N1CCN(c2nc(N3CC(N(C)C)C3)nc3c(Oc4c(Cl)c(F)cc5[nH]ncc45)nccc23)CC1 [Example 02H, 1-(4-{8-[(5-chloro-6-fluoro-1H-indazol-4-yl)oxy]-2-[3-(dimethylamino)azetidin-1-yl]pyrido[3,4-d]pyrimidin-4-yl}piperazin-1-yl)prop-2-en-1-one] |  | 0.505 µM |  |  | 53%
17 | C=CC(=O)N1CCN(c2nc(OC[C@@H]3CCCN3C)nc3c(Oc4c(C)c(Cl)cc5[nH]ncc45)nccc23)CC1 [Example 13B, 1-[4-(8-[(6-chloro-5-methyl-1H-indazol-4-yl)oxy]-2-{[(2S)-1-methylpyrrolidin-2-yl]methoxy}pyrido[3,4-d]pyrimidin-4-yl)piperazin-1-yl]prop-2-en-1-one] | 19% | 0.16 µM |  |  | 74%
18 | C=CC(=O)N1CCN(c2nc(OC3CCN(C)CC3)nc3c(Oc4c(Cl)c(F)cc5[nH]ncc45)nccc23)CC1 [Example 16I, 1-(4-{8-[(5-chloro-6-fluoro-1H-indazol-4-yl)oxy]-2-[(1-methyl-piperidin-4-yl)oxy]pyrido [3,4-d]pyrimidin-4-yl}piperazin-1-yl)prop-2-en-1-one] | 48% | 0.582 µM |  |  | 
19 | C=CC(=O)N1CCN(c2ncnc3c(Oc4c(Cl)c(C)cc5[nH]ncc45)cccc23)CC1 [Example 06C, 1-(4-{8-[(5-chloro-6-methyl-1H-indazol-4-yl)oxy]quinazolin-4-yl}piperazin-1-yl)prop-2-en-1-one] |  | 1.62 µM | 53% |  | 
20 | C=CC(=O)N1CCN(c2ncnc3c(Oc4c(C)ccc5[nH]nc(Cl)c45)nccc23)CC1 [Example 16C, 1-(4-{8-[(3-chloro-5-methyl-1H-indazol-4-yl)oxy]pyrido[3,4-d]pyrimidin-4-yl}piperazin-1-yl)prop-2-en-1-one] |  | 22.2 µM | 7% |  | 
21 | C=CC(=O)N1CCN(c2nc(OC[C@H]3CCN(C)C3)nc3c(Oc4c(Cl)c(F)cc5[nH]ncc45)nccc23)CC1 [Example 18E, 1-[4-(8-[(5-chloro-6-fluoro-1H-indazol-4-yl)oxy]-2-{[(3S)-1-methylpyrrolidin-3-yl]methoxy}pyrido[3,4-d]pyrimidin-4-yl)piperazin-1-yl]prop-2-en-1-one] |  | 0.262 µM |  |  | 80%
22 | C=CC(=O)N1CCN(c2nc(OC[C@@H]3C[C@@H](F)CN3C)nc3c(Oc4c(Cl)c(F)cc5[nH]ncc45)nc(Cl)cc23)CC1 [Example 16G, 1-[4-(6-chloro-8-[(5-chloro-6-fluoro-1H-indazol-4-yl)oxy]-2-{[(2S,4R)-4-fluoro-1-methylpyrrolidin-2-yl]methoxy}pyrido[3,4-d]pyrimidin-4-yl)piperazin-1-yl]prop-2-en-1-one] |  | 0.111 µM |  |  | 14%
23 | C=CC(=O)N1CCN(c2nc(NCc3ncc[nH]3)nc3c(Oc4c(C)ccc5[nH]ncc45)cccc23)CC1 [Example 20F, 1-(4-{2-[(1H-imidazol-2-ylmethyl)amino]-8-[(5-methyl-1H-indazol-4-yl)oxy]quinazolin-4-yl}piperazin-1-yl)prop-2-en-1-one] |  | 2.99 µM |  |  | 17%
